The term TGI denotes the concentration giving total growth inhibition. Low values mean greater sensitivity of the cells, high ones lower sensitivity of the cells. A word on the GI50: it is the concentration giving 50% growth inhibition.

8 molecules from PubChem BioAssay (NCI) can be followed below.

Several values for one entry are separate records, joined by “and”; a condition that tells them apart may be missing. Equal values may be shown once.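 Grown in 96-well plates, cells were treated for 48 hours with each compound at five concentrations. Insufficient inhibition: endpoint recorded as highest concentration tested. GI50 = concentration required for 50% inhibition of growth. TGI denotes the concentration required for complete inhibition of growth.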

Experiment in all cases: DTP human tumour cell line panel, 48 h
In experiment [1] the test system is MDA-MB-231 breast.
In experiment [2] the test system is IGROV1 ovarian.
The test system of experiment [3] is SK-MEL-2 melanoma.
Experiment [4] concerns MDA-MB-435.
Experiment [5] relates to M14 melanoma.
Experiment [6] deals with MALME-3M melanoma.
Experiment [7] has as its system CCRF-CEM leukemia.
Experiment [8] deals with CAKI-1 renal.
The test system of experiment [9] is U251 CNS.
Experiment [10] concerns NCI-H522 lung.

On to `CCCCCCC/C=C1\CCC(CN(C)C)C1=O` (configuration not stated), for which the TGI in [1] amounted to 8.72 µM; in [2], 36.3 µM; in [3], 29.8 µM; in experiment [4], 18.8 µM; in experiment [5], 23.6 µM; in experiment [6], 25.3 µM. For the same molecule, the TGI is 13 µM in experiment [7], 31.6 µM in experiment [8], 32.1 µM in experiment [9] and 11.2 µM in experiment [10].

Regarding `CCCC(=O)Nc1c(I)cc(I)c(CC(CC)C(=O)O)c1I` (configuration not stated), the GI50 in [1], in experiment [2], in [3], in experiment [4], in experiment [5] and in [6] was more than 100 µM in each case. In addition, the GI50 in experiment [7], in [8], in experiment [9] and in experiment [10] was more than 100 µM throughout. The TGI in [1], in experiment [2], in experiment [3], in [4], in experiment [5] and in [6] was more than 100 µM throughout. The TGI in [7], in [8], in experiment [9] and in experiment [10] was more than 100 µM in each case.

For the molecule `COc1ccccc1N1CCN(CCCOc2ccc(C(=O)/C=C3/C(=O)Nc4ccccc43)cc2)CC1`, the GI50 in [1] was 9.63 µM; in experiment [2], 12.1 µM; in experiment [3] it was 5.54 µM; in [4], 13.6 µM; in experiment [5], 11 µM; in experiment [6], 0.589 µM. The GI50 is 3.07 µM in experiment [7], 15.5 µM in experiment [8], 15.4 µM in experiment [9] and 11.9 µM in experiment [10]. Also, the TGI in experiment [1] is 37.6 µM; in experiment [2], 37.6 µM; in experiment [3] it was more than 80.4 µM; in [4] it was 52.3 µM; in experiment [5], 27 µM; in experiment [6], 22.9 µM. Besides, the TGI in experiment [7] was more than 43.2 µM; in experiment [8], more than 62.8 µM; in [9], 63.7 µM; in experiment [10], 34.4 µM.

With `COC(=O)CCCNC(=O)C(=O)c1c(O)c(O)c(C(C)C)c2cc(C)c(-c3c(C)cc4c(C(C)C)c(O)c(O)c(C(=O)C(=O)NCCCC(=O)OC)c4c3O)c(O)c12`, the GI50 is 0.743 µM in experiment [1]; 0.499 µM in experiment [2]; 0.858 µM in experiment [3]; 1.06 µM in experiment [4]; 0.753 µM in experiment [5]; 0.902 µM in experiment [6]. Besides, the GI50 in experiment [7] is 0.331 µM; in experiment [8], 1.51 µM; in experiment [9], 0.298 µM; in experiment [10], 0.379 µM. The TGI in experiment [1] turned out to be 2.99 µM; in [2] it was 13 µM; in experiment [3], 2.93 µM; in experiment [4], 5.85 µM; in experiment [5] it was 2.31 µM; in [6], 12.9 µM. For the same molecule, the TGI in experiment [7] is more than 32.5 µM; in experiment [8], more than 32.5 µM; in experiment [9], 2.31 µM; in experiment [10], 1.9 µM.

Regarding `Cc1cc(C)c(O)c(CNCCCNCc2cc(C)cc(C)c2O)c1`, the GI50 in experiment [1] was 1.93 µM; in [2] it was 4.52 µM; in [3], 2.15 µM; in experiment [4], 1.54 µM; in experiment [5], 1.8 µM; in experiment [6] it was 1.73 µM. The GI50 in [7] is 3.82 µM; in experiment [8], 5.45 µM; in [9], 1.95 µM; in [10], 3.41 µM. Moreover, the TGI in [1] came to 4.45 µM; in experiment [2], 18.5 µM; in experiment [3] it was 4.5 µM; in experiment [4] it was 2.93 µM; in experiment [5], 3.55 µM; in experiment [6], 3.29 µM. For the same molecule, the TGI is 15.3 µM in [7], 18.7 µM in [8], 3.89 µM in [9] and 14.1 µM in [10].

In the case of `O=C1c2ccccc2-c2c1c1ccc([N+](=O)[O-])cc1c(=O)n2CCCn1ccnc1`, the GI50 was 0.15 µM in [1]; 0.696 µM in experiment [2]; 1.06 µM in [3]; 1.55 µM in experiment [4]; 0.106 µM in experiment [5]; 0.148 µM in [6]. The figures for the GI50 in [8], in experiment [9] and in [10] were 0.172 µM, 0.157 µM and 1.08 µM, respectively. For the same molecule, the TGI stood at 0.408 µM in experiment [1]; 2.71 µM in experiment [2]; 3.27 µM in experiment [3]; 5.98 µM in experiment [4]; 0.453 µM in experiment [5]; 1.97 µM in [6]. The TGI in experiment [7] was 0.785 µM; in experiment [8] it was 0.807 µM; in experiment [9], 0.69 µM; in experiment [10], 5.68 µM.

For `Clc1ccc(COC(Cn2ccnc2)c2ccc(Cl)cc2Cl)c(Cl)c1` (configuration not stated), the GI50 was 2.15 µM in experiment [1]; 3.59 µM and 10.6 µM and 1.37 µM in [2]; 2.39 µM in [4]; 3.73 µM in experiment [5]; 4.52 µM in experiment [6]; 4.55 µM in [7]. Besides, the GI50 was 3.18 µM in [8] and 3.57 µM in experiment [9]. For the same molecule, the TGI was 12.9 µM and 26.2 µM and 24.6 µM in experiment [1]; 15 µM and 24.7 µM and 10.9 µM in experiment [2]; 32.6 µM and 28.8 µM in [3]; 6.89 µM and 13 µM and 9.97 µM in experiment [4]; 14.1 µM and 26.6 µM and 22.4 µM in [5]; 17.1 µM and 29.6 µM and 25.1 µM in experiment [6]. Also, the TGI is 21.2 µM and 24.8 µM and 19.8 µM in experiment [7]; 12.9 µM and 26.8 µM and 23.4 µM in [8]; 16.1 µM and 25.8 µM and 23.6 µM in experiment [9]; 23.7 µM and 22.8 µM in experiment [10].

With `O=C1CCC(N2C(=O)c3cccc(NCCOCCOCCNC(=O)c4cc5c(o4)C(=O)c4ccccc4C5=O)c3C2=O)C(=O)N1` (configuration not stated), the GI50 in [1] was 2.29 µM; in [2] it was 1.87 µM; in experiment [3], 2.36 µM; in experiment [4] it was 1.23 µM; in experiment [5] it was 1.2 µM; in experiment [6], 0.184 µM. In addition, the GI50 in experiment [7] is 3.45 µM; in [8], 2.91 µM; in [9] it was 1.72 µM; in experiment [10], 1.71 µM. Further, the TGI amounted to 7.31 µM in [1]; 4.29 µM in experiment [2]; 6.46 µM in experiment [3]; 2.63 µM in [4]; 2.6 µM in experiment [5]; 0.448 µM in experiment [6]. Moreover, the TGI in [7] amounted to 28.9 µM; in experiment [8] it was 10.1 µM; in [9], 3.25 µM; in [10], 4.38 µM.
